In this assay the test system is castrated male Sprague Dawley rats. Put plainly: Ventral Prostate and Levator ani Weight in vivo Assay (agonist, stimulation of tissue weight). More on the design: species or system rat; key: A compound was designated as agonist active if it produced greater than or equal to 20% stimulation of levator ani at 30 mg/kg; they are listed herein as “inactive” as they did not meet the specified criteria defined above; A designation of “toxic” indicates that the compound exhibited toxicity in the rats tested. To be noted: mature castrated rats, test compound oral gavage up to 30 mg/kg once daily for 14 days, vehicle = 0%, testosterone propionate = 100%; for % levator ani Stimulation: levator ani wet weight; for % Prostate Stimulation: ventral prostate wet weight. As for the experimental part: Ventral Prostate and Levator ani Weight in vivo Assay
Mature (150 to 200 g) castrated male Sprague Dawley rats (Charles River) were treated once daily for 14 days with test compound (usually administered by oral gavage at up to the desired dosage, up to 30 mg/kg in a volume of 1 mL, in 30% cyclodextrin or 0.5% methylcellulose vehicle), or with testosterone propionate (administered subcutaneously by injection at the nape of the neck at 5 mg/kg, in a volume of 0.1 mL in sesame oil), or with vehicle (1 mL of 30% cyclodextrin or 0.5% methylcellulose, given orally). On the fifteenth day, the rats were euthanized by asphyxiation in carbon dioxide. Ventral prostates and levator ani muscles were removed and their wet weights determined.
Test compound activity was determined as the percent stimulation of tissue weight, with the vehicle-treated control group set to zero percent and the testosterone alone-treated control group set to 100%. A compound was designated as agonist active if it produced greater than or equal to 20% stimulation of levator ani at 30 mg/kg.
Representative compounds of the present invention were tested according to the procedure described, with results as listed in Table 10 below.

`CSCCC1=NNC(C)(C(=O)Nc2ccc(C#N)c(C(F)(F)F)c2)C1` (stereo not drawn) [compound 79]: the “% levator ani Stimulation” value was “inactive” and the “% Prostate Stimulation” value was “inactive”.
Regarding `CC1(C(=O)Nc2ccc(C#N)c(C(F)(F)F)c2)CC(C2CCCC2)=NN1` (stereo not drawn) [compound 78], the “% levator ani Stimulation” value is “inactive” and the “% Prostate Stimulation” value was “inactive”.
Regarding `CC1(C(=O)NCc2ccc(S(C)(=O)=O)cc2)CC(C(F)(F)F)=NN1` (stereo not drawn) [Compound 27, 3-Methyl-5-trifluoromethyl-3,4-dihydro-2H-pyrazole-3-carboxylic acid 4-methanesulfonyl-benzylamide], the “% levator ani Stimulation” value was “inactive” and the “% Prostate Stimulation” value was “inactive”.
As for `CC1(C(=O)Nc2ccc(C#N)c(C(F)(F)F)c2)CC(C(F)(F)C(F)(F)F)=NN1` (stereo not drawn) [Compound 98, 3-Methyl-5-pentafluoroethyl-3,4-dihydro-2H-pyrazole-3-carboxylic acid (4-cyano-3-trifluoromethyl-phenyl)-amide], the “% levator ani Stimulation” value is on record as “active” and the “% Prostate Stimulation” value was “active”.
On to `CC1CC(C(=O)Nc2ccc(C#N)c(C(F)(F)F)c2)(C(F)(F)F)N=N1` (stereo not drawn) [Compound 114, 5-Methyl-3-trifluoromethyl-4,5-dihydro-3H-pyrazole-3-carboxylic acid (4-cyano-3-trifluoromethyl-phenyl)-amide], for which the “% levator ani Stimulation” value is “inactive” and the “% Prostate Stimulation” value is “inactive”.
As for `CC1(C(=O)N(C(=O)C(F)(F)F)c2ccc(C#N)c(C(F)(F)F)c2)CC(C(F)(F)F)=NN1` (stereo not drawn) [Compound 115, 3-Methyl-5-trifluoromethyl-3,4-dihydro-2H-pyrazole-3-carboxylic acid (4-cyano-3-trifluoromethyl-phenyl)-(2,2,2-trifluoro-acetyl)-amide], the “% levator ani Stimulation” value is “inactive” and the “% Prostate Stimulation” value was “inactive”.

These data come from US7781473B2, “Heterocycle derivatives useful as selective androgen receptor modulators (SARMS)” (J & J Pharmaceutical Research & Development, LLC., priority 2004, dated 2010).
